Entries after “also recorded” stand apart in the source; their conditions may differ. Like-named read-outs stand apart in the source and are kept apart here.
How the values were obtained:
GBM cell line U373 = experiment: cells; assay type: cell-based, human; conditions: for Inhibition of U373 growth as single agent (in words): individual treatment, 7 days; for Concentration range of activity against U373 (in words): single agent (FIG. 5A, 5B)
Protocol: To identify novel therapeutic targets for the treatment of glioblastoma multiforme (GBM), cantharidin analogs were evaluated for their ability to inhibit growth of glioblastoma multiforme cells. Specifically, GBM cell line U373 was used in evaluations.
The total number of cells is counted in the triplicate cultures at each dose and in controls after 7 days and the average number of cells and the standard deviation is determined.
The amount of inhibition of GBM cell growth is expressed as the proportion of the number of cells in the experimental dishes compared to the number of cells in control dishes containing only the drug vehicle and culture medium. The average percent of control is plotted and bracketed by one standard deviation calculated from the triplicate measurements.

[1] = system: breast cancer line, MCF-7; experiment: Inhibition of growth of breast cancer line MCF-7, single agents, 7 days; assay type: cell-based; conditions: for Inhibition of MCF-7 growth (in words): individual doses, 7 days (FIG. 6C); for Sensitivity of MCF-7 compared with U373 (in words): single agents, 7 days (FIG. 6C vs 6B)
From the text: (§1) To determine whether there is tumor type specificity of the inhibitory properties of PP2A inhibitors, retinoic acid and Trichostatin A, we measured their inhibitory effects as single agents against the GBM line U373, a breast cancer line, MCF-7 (obtained from ATCC) and a kidney cancer cell line, UMRC (UMRC obtained by Dr. Zhuang, NINDS, NIH from the Intramural Research Support Program, SAIC, National Cancer Institute, Frederick Cancer Research and Development Center).

[2] = system: kidney cancer cell line, UMRC; experiment: Inhibition of growth of kidney cancer cell line UMRC, single agents, 7 days; assay type: cell-based; conditions: 7 days (FIG. 6A vs 6B)
From the text: as §1

[3] = cited from earlier work; for Urinary tract toxicity (in words): in vivo
PP1 = conditions: cited from earlier work
PP2A = conditions: cited from earlier work
primary hepatoma = conditions: cited from earlier work
[4] = system: white blood cell production; conditions: patients and mice; cited from earlier work
GBM cell line U343 MG-A = experiment: Growth of GBM cell line U343 MG-A, cell counts over 16 days; assay type: cell-based, human; conditions: 50 μM retinoic acid and/or 10 nM okadaic acid
Protocol: Finally, the GBM cell line U343 MG-A was treated with 50 μM of retinoic acid (RA) and/or 10 nM of okadaic acid (OA), a protein phosphatase-1 inhibitor.
Three cultures for each of four treatments were grown for 16 days with cell counts obtained at baseline and for each of the eight even numbered days. Log transformations were applied to the cell counts, and repeated measures of analysis of variance model used to evaluate the treatment differences over time. Pair wise treatment comparisons used Sidak's statistic to account for multiple testing.

[5] = for weeks; cited from earlier work
[6] = system: brain tumor stem cells (BTSC) isolated from GBM; experiment: Differentiation of cultured brain tumor stem cells treated with CNTF (GFAP expression, N-CoR localization); assay type: cell-based
Protocol: (Hughes et al. (1988)) The BTSCs cells were then assessed for GFAP expression along with subcellular N—CoR localization.

[7] = Homo sapiens, U373 MG, 168 h, read-out: IC50, concentration that inhibited brain tumor cell proliferation by 50%
[8] = U373, 7 days exposure, estimated from graphic plots (FIG. 3), read-out: IC50, concentration that inhibited brain tumor cell proliferation by 50%

With CC1=C(/C=C/C(C)=C/C=C/C(C)=C/C(=O)O)C(C)(C)CCC1 [ATRA, all-trans retinoic acid] the IC50 (GBM cell line U373; Homo sapiens, U373 MG, 168 h, U373, 7 days (FIG. 4A), read-out: IC50 of ATRA alone) was greater than 50 µM, the activity at 25 µM (GBM cell line U373; Homo sapiens, U373 MG, U373, ATRA 25 uM alone, read-out: Percent of Control, Observed) was 77% and the “Inhibition of U373 growth as single agent (in words)” value (“Inhibition of U373 growth” below) (GBM cell line U373; U373) was “modest inhibition of growth”. For the same molecule, the “Inhibition of MCF-7 growth (in words)” value [1] was “showed an inhibition in growth”, the “Sensitivity of MCF-7 compared with U373 (in words)” value [1] was “as sensitive as U373” and the “Sensitivity of UMRC compared with U373 (in words)” value [2] was “less sensitive”.

In the case of CC1=C(/C=C/C(C)=C/C=C/C(C)=C\C(=O)O)C(C)(C)CCC1 [Cis-RA, 13-cis retinoic acid], the “Percent of Control, Observed” value (GBM cell line U373; U373, Cis-RA 50 μM alone) is reported as 93.3 +/− 2.2% of Control and the “Inhibition of U373 growth” value (GBM cell line U373; U373) is reported as “modest inhibition of growth”.

In the case of CC(/C=C/C(=O)NO)=C\[C@@H](C)C(=O)c1ccc(N(C)C)cc1 [TSA, Trichostatin A], the “Percent of Control, Observed” value (GBM cell line U373; U373, TSA 0.033 μM (0.01 μg/ml) alone) is reported as 71.6 +/− 0.4% of Control, the “Inhibition of U373 growth” value (GBM cell line U373; U373) is reported as “dose dependent activity” and the “Concentration range of activity against U373 (in words)” value (GBM cell line U373; U373) is reported as “active at nM concentrations”. For the same molecule, the “Inhibition of MCF-7 growth (in words)” value [1] was “showed an inhibition in growth”, the “Sensitivity of MCF-7 compared with U373 (in words)” value [1] was “as sensitive as U373” and the “Sensitivity of UMRC compared with U373 (in words)” value [2] was “less sensitive”.

In the case of C[C@@]12C(=O)OC(=O)[C@]1(C)[C@H]1CC[C@@H]2O1 [cantharidin], the “Urinary tract toxicity (in words)” value [3] is listed as “toxic to the urinary tract”, the “Inhibition of PP1 activity (in words)” value (PP1) is listed as “to some extent” and the “Inhibition of PP2A activity (in words)” value (PP2A) is listed as “inhibit the activity of PP2A”.

In the case of CN1CCN(C(=O)C2C(C(=O)O)[C@H]3CC[C@@H]2O3)CC1 (stereo partly drawn) [compound LB-1], the IC50 (GBM cell line U373; [7]) is reported as 3 µM, the activity at 1 µM (GBM cell line U373; Homo sapiens, U373 MG, read-out: Percent of Control, Observed, U373, LB-1 1 uM alone (Table 1)) is reported as 78% and the “Percent of Control, Observed” value (GBM cell line U373; U373, LB-1 1 μM alone (Table 3)) is reported as 97.9 +/− 1.0% of Control. The “Percent of Control, Observed” value (GBM cell line U373; U373, LB-1 5 μM alone) was 52.5 +/− 2.9% of Control and the “Inhibition of U373 growth” value (GBM cell line U373; U373) was “modest inhibition of growth”.

For O=C1SC(=O)[C@H]2[C@@H]1[C@@H]1CC[C@H]2O1 [endothal thioanhydride], the “Liver toxicity (in words)” value ([3]; mice) is given as “toxic to the liver of mice”, the IC50 (GBM cell line U373; [8]) is given as 2.5 µM and the “Inhibition of U373 growth” value (GBM cell line U373; U373) is given as “most potent inhibitor of GBMs in vitro; also recorded: greatest inhibition of growth”. For the same molecule, the “Inhibition of PP1 activity (in words)” value (PP1) was “to some extent”, the “Sensitivity of MCF-7 compared with U373 (in words)” value [1] was “as sensitive as U373” and the “Inhibition of PP2A activity (in words)” value (PP2A) was “inhibit the activity of PP2A”. The “Sensitivity of UMRC compared with U373 (in words)” value [2] was “less sensitive”.

With O=C(O)C1C2CCC(O2)C1C(=O)O (stereo not drawn) [endothal] the IC50 (GBM cell line U373; [7]) was 15 µM, the activity at 1 µM (GBM cell line U373; Homo sapiens, U373 MG, read-out: Percent of Control, U373, endothal 1 μM, 13-cis retinoic acid none) was 100% and the activity at 5 µM (GBM cell line U373; Homo sapiens, U373 MG, read-out: Percent of Control, U373, endothal 5 μM, 13-cis retinoic acid none) was 96%. The activity at 10 µM (GBM cell line U373; Homo sapiens, U373 MG, read-out: Percent of Control, U373, endothal 10 μM, 13-cis retinoic acid none) was 76%, the “Percent of Control, Observed” value (GBM cell line U373; U373, END 10 uM alone) was 65% and the “Percent of Control” value (GBM cell line U373; U373, endothal 10 μM, 13-cis retinoic acid none) was 73%. For the same molecule, the “Inhibition of U373 growth” value (GBM cell line U373; U373) was “modest inhibition of growth”, the “Inhibition of PP1 activity (in words)” value (PP1) was “to some extent” and the “Inhibition of MCF-7 growth (in words)” value [1] was “showed an inhibition in growth”. For the same molecule, the “Sensitivity of MCF-7 compared with U373 (in words)” value [1] was “as sensitive as U373”, the “Inhibition of PP2A activity (in words)” value (PP2A) was “inhibit the activity of PP2A” and the “Sensitivity of UMRC compared with U373 (in words)” value [2] was “less sensitive”.

In the case of O=C1OC(=O)[C@H]2[C@@H]1[C@H]1CC[C@H]2O1 [norcantharidin], the “Relative toxicity in vivo (in words)” value ([3]; compared among endothal thioanhydride, norcantharidin, endothal) is listed as “falling in between”, the “Urinary tract toxicity (in words)” value [3] is listed as “little or no urinary tract toxicity” and the 1-year survival (primary hepatoma; 244 patients with primary hepatoma, historical controls 17%) is listed as 30%. For the same molecule, the “Life span of patients with primary hepatoma” value (primary hepatoma; 244 patients, historical controls on standard chemotherapy 4.7 months) was 11.1 months, the “White blood cell production (in words)” value [4] was “stimulates white blood cell production” and the IC50 (GBM cell line U373; [8]) was 12 µM. For the same molecule, the “Sensitivity of MCF-7 compared with U373 (in words)” value [1] was “as sensitive as U373” and the “Sensitivity of UMRC compared with U373 (in words)” value [2] was “less sensitive”.

For C=C1[C@@H](O)[C@@H]2O[C@]3(CC[C@H](/C=C/[C@@H](C)[C@@H]4CC(C)=C[C@@]5(O[C@H](C[C@@](C)(O)C(=O)O)CC[C@H]5O)O4)O3)CC[C@H]2O[C@@H]1[C@@H](O)C[C@H](C)[C@H]1O[C@@]2(CCCCO2)CC[C@H]1C [okadaic acid], the “Course of cell counts over time (in words)” value (GBM cell line U343 MG-A; 16 days) was “monotonically increased” and the “Effect on cell growth (in words)” value (GBM cell line U343 MG-A; 16 days (FIG. 2C)) was “modest effect on cell growth”.

For CCCC(CCC)C(=O)O [valproic acid], the “Serum concentration tolerated in humans” value [5] is listed as roughly 1.0 mM, the “Inhibition of U373 growth” value (GBM cell line U373; U373) is listed as “dose dependent activity” and the “Concentration range of activity against U373 (in words)” value (GBM cell line U373; U373) is listed as “in the mM range”.

B1: CNTF: ciliary neurotrophic factor, agent shown to induce astrocytic differentiation of neural stem cells in vitro (protein, UniProt P26441 1-200, looked up)
Ciliary neurotrophic factor: MAFTEHSPLTPHRRDLCSRSIWLARKIRSDLTALTESYVKHQGLNKNINLDSADGMPVASTDQWSELTEAERLQENLQAYRTFHVLLARLLEDQQVHFTPTEGDFHQAIHTLLLQVAAFAYQIEELMILLEYKIPRNEADGMPINVGDGGLFEKKLWGLKVLQELSQWTVRSIHDLRFISSHQTGIPARGSHYIANNKKM
For B1, the “GFAP expression in BTSC (in words)” value ([6]; BTSC cultured with CNTF, 2-DGE and LCMS (FIG. 2A)) was “began to express GFAP”, the “Subcellular localization of N-CoR in BTSC (in words)” value ([6]; Western blot of cytoplasmic fraction of CNTF-treated BTSC (FIG. 2B)) was “translocation of N—CoR to the cytoplasm” and the “Time of peak cytoplasmic N-CoR and GFAP expression” value ([6]; following CNTF stimulation) was 7 days.

Source: patent US20090018142A9, “Use of phosphatases to treat tumors overexpressing N-CoR” (priority 2006, published 2009)
